Results as given in article PMC10364322, “Evaluation of chronic drug-induced electrophysiological and cytotoxic effects using human-induced pluripotent stem cell-derived cardiomyocytes (hiPSC-CMs)” (Frontiers in Pharmacology, 2023).
Where two headings read alike, the source gives them in different places.

Experiments:
[1] = free therapeutic Cmax in humans; ref FDA-approved drug packages, PharmaPendium; cited from earlier work
[2] = test system: hiPSC-CMs (iCell-Cardiomyocytes^2)
Method: Cells were seeded according to the instructions of the cell provider, in fibronectin-coated 48-well MEA plates (Axion Cytoview Plates, M768-tMEA-48B) at a density suited to form a monolayer (i.e., 50 K/well) and maintained in culture in a stage incubator (37°C, 5% CO2).
At least 4 h before the beginning of the baseline measurements, a full medium exchange was performed (to a final volume of 400 µL per well). Neat compounds were dissolved in 100% DMSO at a stock concentration 1000-fold the highest target concentration. […] Afterwards, these stock solutions were diluted with Maintenance medium (CDi), to 10-fold the intended concentration. The final DMSO concentration in test solutions and vehicle control was 0.1%.
Spontaneous electrical activity was recorded in hiPSC-CMs monolayers as field potentials using the Maestro Pro MEA instrument (Axion Biosystems, Atlanta, GA, United States), which allows the maintenance of accurate temperature and CO2 levels (37°C, 5% CO2). After the plate was placed in the Maestro Pro and allowed to equilibrate for about 10 min, baseline acquisition of field potential and impedance signals was initiated and lasted for 5 min each. […] As impedance measures resistance of an applied alternating current through the hiPSC-CMs monolayer, a reduction in the attachment of hiPSC-CMs to the bottom of the well due to cell death or changes in the monolayer morphology, causes a drop in the impedance signal.
The potential presence of various arrhythmic events was evaluated and noted during the data analysis.
After the acquisition of all timepoint measurements, raw data were loaded into the data analysis software Axion Cardiac Analysis Tool (V.3.2.3). […] A.csv file containing information on the FP parameters per well, per time point, was then generated and used as input to the in-house data management system (SPEcII v.3.4, Unlimit-IT, Geel, Belgium), where descriptive statistics were calculated. Summary values at different time points after compound addition are expressed as percent change from baseline and shown as mean ± standard deviation (SD).
The nonparametric Wilcoxon-Mann Whitney Test was used to compare the percent change from the baseline (Δ%) value between the group treated with the compound at a given concentration and the group treated with the DMSO at each matching time points. A two-sided test at 5% significance level was considered. […] To assess the physiological relevance of changes, a tolerance interval of DMSO experiments was calculated at each time point, for each parameter. […] TIs indicate an interval where, with a certain confidence level (1- α = 0.95), a specified proportion (p = 0.80) of percent change for DMSO data falls. The lower and upper limits based on the TI values were used as cut-offs for the interpretation of the changes. For the cytotoxicity assays, measurements of fluorescence (after background fluorescence subtraction) from wells treated with the compounds were normalized by the average value of vehicle experiments (DMSO 0.1%) to obtain a DMSO-corrected, delta/delta percent change. Experiments from each condition, as delta/delta percent, were averaged and expressed as mean ± SD. Statistical analysis was performed using a non-parametric test (Kruskal-Wallis) and each treatment condition was compared to the relative DMSO 0.1%. Differences were considered statistically significant when the p-value was smaller than 0.05.

BR (beating rate), % change from baseline ([2]; 0.1 µM, 2h): 0±4%
Beating below threshold, number of observations/total well numbers ([2]; 0.1 µM, 2h): 0/5
Cessation of beating, number of observations/total well numbers ([2]; 0.1 µM, 2h): 0/5
EAD, number of observations/total well numbers ([2]; 0.1 µM, 2h): 0/5
FPDc (field-potential duration corrected by beat-rate), % change from baseline ([2]; 0.1 µM, 2h): 15.3±2.3 %
Flat T-wave-like, number of observations/total well numbers ([2]; 0.1 µM, 2h): 0/5
BR (beating rate), % change from baseline ([2]; 0.1 µM, 24h): -9±5%
Beating below threshold, number of observations/total well numbers ([2]; 0.1 µM, 24h): 0/5
Cessation of beating, number of observations/total well numbers ([2]; 0.1 µM, 24h): 0/5
EAD, number of observations/total well numbers ([2]; 0.1 µM, 24h): 0/5
FPDc (field-potential duration corrected by beat-rate), % change from baseline ([2]; 0.1 µM, 24h): 44.1±5.9 %
Flat T-wave-like, number of observations/total well numbers ([2]; 0.1 µM, 24h): 0/5
BR (beating rate), % change from baseline ([2]; 0.1 µM, 48h): -14±2 %
Beating below threshold, number of observations/total well numbers ([2]; 0.1 µM, 48h): 0/5
Cessation of beating, number of observations/total well numbers ([2]; 0.1 µM, 48h): 0/5
EAD, number of observations/total well numbers ([2]; 0.1 µM, 48h): 0/5
FPDc (field-potential duration corrected by beat-rate), % change from baseline ([2]; 0.1 µM, 48h): 40.3±1.1 %
Flat T-wave-like, number of observations/total well numbers ([2]; 0.1 µM, 48h): 0/5
BR (beating rate), % change from baseline ([2]; 0.1 µM, 72h): -17±2 %
Beating below threshold, number of observations/total well numbers ([2]; 0.1 µM, 72h): 0/5
Cessation of beating, number of observations/total well numbers ([2]; 0.1 µM, 72h): 0/5
EAD, number of observations/total well numbers ([2]; 0.1 µM, 72h): 0/5
FPDc (field-potential duration corrected by beat-rate), % change from baseline ([2]; 0.1 µM, 72h): 52.6±4.9 %
Flat T-wave-like, number of observations/total well numbers ([2]; 0.1 µM, 72h): 0/5
BR (beating rate), % change from baseline ([2]; 0.1 µM, 96h): -19±3%
Beating below threshold, number of observations/total well numbers ([2]; 0.1 µM, 96h): 0/5
Cessation of beating, number of observations/total well numbers ([2]; 0.1 µM, 96h): 0/5
EAD, number of observations/total well numbers ([2]; 0.1 µM, 96h): 0/5
FPDc (field-potential duration corrected by beat-rate), % change from baseline ([2]; 0.1 µM, 96h): 57.6±5.7 %
Flat T-wave-like, number of observations/total well numbers ([2]; 0.1 µM, 96h): 0/5
BR (beating rate), % change from baseline ([2]; 0.3 µM, 2h): -5±4%
Beating below threshold, number of observations/total well numbers ([2]; 0.3 µM, 2h): 0/5
Cessation of beating, number of observations/total well numbers ([2]; 0.3 µM, 2h): 0/5
EAD, number of observations/total well numbers ([2]; 0.3 µM, 2h): 0/5
FPDc (field-potential duration corrected by beat-rate), % change from baseline ([2]; 0.3 µM, 2h): 28.5±9.1 %
Flat T-wave-like, number of observations/total well numbers ([2]; 0.3 µM, 2h): 0/5
BR (beating rate), % change from baseline ([2]; 0.3 µM, 24h): -29±5 %
Beating below threshold, number of observations/total well numbers ([2]; 0.3 µM, 24h): 0/5
Cessation of beating, number of observations/total well numbers ([2]; 0.3 µM, 24h): 0/5
EAD, number of observations/total well numbers ([2]; 0.3 µM, 24h): 1/5
FPDc (field-potential duration corrected by beat-rate), % change from baseline ([2]; 0.3 µM, 24h): 112±14.9 %
Flat T-wave-like, number of observations/total well numbers ([2]; 0.3 µM, 24h): 1/5
BR (beating rate), % change from baseline ([2]; 0.3 µM, 48h): -31±2 %
Beating below threshold, number of observations/total well numbers ([2]; 0.3 µM, 48h): 0/5
Cessation of beating, number of observations/total well numbers ([2]; 0.3 µM, 48h): 0/5
EAD, number of observations/total well numbers ([2]; 0.3 µM, 48h): 0/5
FPDc (field-potential duration corrected by beat-rate), % change from baseline ([2]; 0.3 µM, 48h): 99.2±21.9 %
Flat T-wave-like, number of observations/total well numbers ([2]; 0.3 µM, 48h): 1/5
BR (beating rate), % change from baseline ([2]; 0.3 µM, 72h): -40±3 %
Beating below threshold, number of observations/total well numbers ([2]; 0.3 µM, 72h): 0/5
Cessation of beating, number of observations/total well numbers ([2]; 0.3 µM, 72h): 0/5
EAD, number of observations/total well numbers ([2]; 0.3 µM, 72h): 0/5
FPDc (field-potential duration corrected by beat-rate), % change from baseline ([2]; 0.3 µM, 72h): 126.3±24.4 %
Flat T-wave-like, number of observations/total well numbers ([2]; 0.3 µM, 72h): 1/5
BR (beating rate), % change from baseline ([2]; 0.3 µM, 96h): -43±6 %
Beating below threshold, number of observations/total well numbers ([2]; 0.3 µM, 96h): 0/5
Cessation of beating, number of observations/total well numbers ([2]; 0.3 µM, 96h): 0/5
EAD, number of observations/total well numbers ([2]; 0.3 µM, 96h): 0/5
FPDc (field-potential duration corrected by beat-rate), % change from baseline ([2]; 0.3 µM, 96h): 144.1±35.5 %
Flat T-wave-like, number of observations/total well numbers ([2]; 0.3 µM, 96h): 1/5
BR (beating rate), % change from baseline ([2]; 1 µM, 2h): -28±5 %
Beating below threshold, number of observations/total well numbers ([2]; 1 µM, 2h): 0/5
Cessation of beating, number of observations/total well numbers ([2]; 1 µM, 2h): 0/5
EAD, number of observations/total well numbers ([2]; 1 µM, 2h): 0/5
SMILES: COc1cc2c(Nc3ccc(Br)cc3F)ncnc2cc1OCC1CCN(C)CC1 [Vandetanib]
Free Cmax [1]: 400 nM
